Assay results reported in patent publication US20040074272A1, “Controlled release urea product and method of preparing said product” (priority 2001, published 2004).

Columns and labels:
[1] = in vitro solubility assay of urea in water at 39° C.; assay type: physicochemical; conditions: 50 mg urea in 50 ml water at 39° C.
Procedure: The coating layers consisted of rosin only or a combination of primer and rosin. […] Fifty mg urea was incubated in 50 ml water at 39° C. Samples (1 ml) were taken after 1, 2, 4 and 7.5 h incubation. Urea concentration was estimated by spectrophotometry.

[2] = feeding trial in sheep fitted with rumen cannulae, rumen ammonia profile; assay type: in vivo
Procedure: Samples consisted of prilled urea-cement matrix coated with a primer of the type oxychloride cement followed by 3 or 4 layers of rosin and calcium carbonate.
The experiment was carried out with sheep fitted with rumen cannulae. Sheep were fed on a control diet of 63% grass hay and 37% of unmollassed sugarbeet pulp. Control diet was then supplemented with 1.3% urea (or urea equivalent in the is form of a controlled-release product) and added directly into the rumen to avoid excess chewing, which is known to be more intense in sheep compared to cattle. Data from the feeding trials are described in Table 4 and FIG. 3.

## NC(N)=O [Urea, urea]
[1]; incubation time 1 h
  Urea solubilized (%): 98.9%
[1]; incubation time 2 h
  Urea solubilized (%): 100.1%
[1]; incubation time 4 h
  Urea solubilized (%): 99.3%
[1]; incubation time 7.5 h
  Urea solubilized (%): 100.6%
[2]; 0 h after feeding, diet supplemented with 1.3% urea or urea equivalent, added directly into the rumen
  Rumen ammonia: 8.8 mg N/100 ml
[2]; 1 h after feeding, 1.3% urea or urea equivalent into the rumen
  Rumen ammonia: 33.3 mg N/100 ml
[2]; 2 h after feeding, 1.3% urea or urea equivalent into the rumen
  Rumen ammonia: 25.0 mg N/100 ml
[2]; 4 h after feeding, 1.3% urea or urea equivalent into the rumen
  Rumen ammonia: 10.7 mg N/100 ml
[2]; 8 h after feeding, 1.3% urea or urea equivalent into the rumen
  Rumen ammonia: 6.6 mg N/100 ml
[2]; 12 h after feeding, 1.3% urea or urea equivalent into the rumen
  Rumen ammonia: 9.0 mg N/100 ml
